{
  "source": "patent US20030100479A1",
  "about": "“Gene polymorphisms and response to treatment” (priority 2001, published 2003)",
  "key": {"[1]": {"assay": "Dose-ranging clinical trial of GW320659 for weight loss: absolute change in body weight week 0 to week 24, by genotype", "format": "in vivo, human", "settings": "for Placebo adjusted mean absolute change in body weight / Placebo adjusted mean absolute change in weight: 15 mg dose group", "description": "The present inventors determined that the genetic polymorphisms identified herein are associated with differences in phenotypic response to treatment with the neuronal monoamine reuptake inhibitor GW320659. In the present study, the genotyped subjects had been recruited from a randomized placebo-controlled study of GW320659 for the treatment of obesity, in conjunction with a mildly hypocaloric diet and brief weight management guidance. Subjects had been randomized into one of five treatment groups: placebo or GW320659 at 2.5 mg/day, 5 mg/day, 10 mg/day, or 15 mg/day; outcome measurements included weight loss over baseline weight and changes in supine heart rate, supine diastolic blood pressure, and supine systolic blood pressure.\nThe primary outcome measurement was the individual's absolute change from baseline body weight (weight at week 0, randomization visit) to weight after 24 weeks of treatment. Genotypes associated with at least a 5.8 kg average weight loss over the 24 week study for subjects receiving 15 mg/day GW320659 are shown in Table 2. The average weight loss in the total (non-genotyped) clinical trial of GW320659 (at the 15 mg/day dosage) was 3.7 Kg (data not shown).\nUsing genotyping methods as are well known in the art, genetic data were obtained from approximately 200 of more than 500 human subjects enrolled in a dose-ranging efficacy and safety study of GW320659 for weight loss (main study group; a randomized, double-blind, placebo controlled, dose-ranging clinical trial); GW320659 was used in conjunction with a mildly hypocaloric diet and brief weight management guidance. Subjects were between the ages of 18-65 years, with a Body Mass Index (BMI) of 30-40, and were not on any psychotropic medications or other anti-obesity medications. Subjects were randomized into one of five treatment groups: placebo or GW320659 at 2.5 mg/day, 5 mg/day, 10 mg/day, or 15 mg/day (oral administration). In the main study group, for the GW320659 15 mg/day dosage, average weight loss was approximately 3.7 kg (108 subjects; data not shown).\nSubjects were assessed for various parameters, including absolute change in body weight from week 0 to week 24 of the study; supine heart rate, diastolic blood pressure and systolic blood pressure at multiple predetermined time-points across the study; and change in Food Craving Inventory (Total) score from week 0 to week 24.\nChange in body weight was analyzed using Analysis of Variance (ANOVA); body weight at Week 0 (randomization visit) was used as the baseline weight. The absolute change from baseline in body weight at week 24 was the dependent (response) variable. The primary independent variables were treatment group and genotype. Treatment by genotype interaction was assessed with the appropriate orthogonal trend (treatment) by genotype contrasts. […] The primary model is denoted as follows:\nRecursive partioning (HelixTree Software, May 1, 2001) was used to further examine the data. Due to sample size constraints, a combination of automatic and manual splits were used to best describe the underlying relationships between genotypes, treatment dose, and other demographic variables for each selected endpoint. Recursive partioning was applied to the following endpoints: change in weight, change in food craving (total score) inventory, change (Area Under the Curve (AUC) adjusted) in supine heart rate, and change (AUC adjusted) in supine diastolic blood pressure.\nThe multilocus genotypes from each individual were used to enumerate all possible haplotypes. These haplotypes were assigned starting frequencies. The haplotype frequencies were updated with frequencies calculated from all the possible haplotypes from each individual in the sample. This continued until the frequencies were constant from iteration to iteration.\nRegression-based models were used to relate inferred haplotype probabilities for each individual with the continuous response."}, "dopamine reuptake": {"tested_on": "dopamine reuptake", "settings": "Kelley et al., J. Med. Chem. 39:347 (1996); cited from earlier work"}},
  "data": [
    {"smiles": "C[C@@H]1CO[C@@](O)(c2cc(F)cc(F)c2)[C@H](C)N1.Cl", "note": "[GW320659, (2S,3S,5R)-2-(3,5-difluorophenyl)-3,5-dimethyl-2-morpholinol]", "values": [
      {"measurement": "Average weight loss, main study group", "setting": "[1]; 15 mg/day oral, 108 subjects, data not shown", "result": "approximately 3.7 kg"},
      {"measurement": "Average weight loss, total (non-genotyped) clinical trial", "setting": "[1]; 15 mg/day, 24 weeks, not divided by genotype, data not shown", "result": 3.7, "unit": "kg"},
      {"measurement": "Average weight loss", "setting": "[1]; 5HTT Del-Ins (1,2) genotype, 15 mg/day dose", "result": -5.2, "unit": "kg"},
      {"measurement": "Average Weight Loss (Kg)(range)", "setting": "[1]; 5HTT G160A genotype 2,2, 15 mg/day, 24 weeks", "result": "−6.1 (−10.3, −3.2) Kg"},
      {"measurement": "Average Weight Loss (Kg)(range)", "setting": "[1]; 5HTT G769T genotype 1,1, 15 mg/day, 24 weeks", "result": "−6.0 (−9.5, −3.2) Kg"},
      {"measurement": "Average Weight Loss (Kg)(range)", "setting": "[1]; DAT1 genotype 9,9, 15 mg/day, 24 weeks", "result": "−7.6 (−22.1, −1.1) Kg"},
      {"measurement": "Average Weight Loss (Kg)(range)", "setting": "[1]; DAT1 genotype 10,9, 15 mg/day, 24 weeks", "result": "−6.6 (−20.4, 1.3) Kg"},
      {"measurement": "Average Weight Loss (Kg)(range)", "setting": "[1]; NET1 C120A genotype 2,2, 15 mg/day, 24 weeks", "result": "−5.8 (−20.4, 1.3) Kg"},
      {"measurement": "Absolute change in weight (largest for any sub-group)", "setting": "[1]; NET1 G155A 2,2 genotype, 15 mg dose, n=4", "result": -9.0, "unit": "kg"},
      {"measurement": "Average Weight Loss (Kg)(range)", "setting": "[1]; NET1 G155A genotype 2,2, 15 mg/day, 24 weeks", "result": "−9.0 (−20.4, −3.3) Kg"},
      {"measurement": "Mean absolute change in weight", "setting": "[1]; NET1 T342C 2,2 genotype, 15 mg dose, n=7", "result": -7.1, "unit": "kg"},
      {"measurement": "Weight loss compared to subjects with alternate genotypes", "setting": "[1]; NET1 T342C (2,2) and without DRD2 C12121T (2,2), 10 mg/day or 15 mg/day", "result": "increased weight loss"},
      {"measurement": "Placebo adjusted mean absolute change in body weight", "setting": "[1]; NET1 T342C genotype 1,1", "result": -2.8, "unit": "kg"},
      {"measurement": "Placebo adjusted mean absolute change in body weight", "setting": "[1]; NET1 T342C genotype 1,2", "result": -3.3, "unit": "kg"},
      {"measurement": "Placebo adjusted mean absolute change in body weight", "setting": "[1]; NET1 T342C genotype 2,2", "result": -7.3, "unit": "kg"},
      {"measurement": "Average Weight Loss (Kg)(range)", "setting": "[1]; NET1 T342C genotype 2,2, 15 mg/day, 24 weeks", "result": "−7.1 (−13.7, 0) Kg"},
      {"measurement": "Average Weight Loss (Kg)(range)", "setting": "[1]; NR1 G1001C genotype 1,2, 15 mg/day, 24 weeks", "result": "−6.0 (−13.7, −0.9) Kg"},
      {"measurement": "Placebo adjusted mean absolute change in weight", "setting": "[1]; NR1 G6435A genotype 1,1", "result": -4.4, "unit": "kg"},
      {"measurement": "Placebo adjusted mean absolute change in weight", "setting": "[1]; NR1 G6435A genotype 1,2", "result": -1.9, "unit": "kg"},
      {"measurement": "Placebo adjusted mean absolute change in weight", "setting": "[1]; NR1 G6435A genotype 2,2, three placebo and four GW320659 subjects", "result": -10.3, "unit": "kg"},
      {"measurement": "Average Weight Loss (Kg)(range)", "setting": "[1]; NR1 G6435A genotype 2,2, 15 mg/day, 24 weeks", "result": "−6.9 (−9.2, −3.3) Kg"},
      {"measurement": "Weight Loss at 24 weeks, Mean", "setting": "[1]; haplotype 1,1 NET1G155A NET1T342C, All Ethnicities, 10-15 mg (Table 4)", "result": "−2.007"},
      {"measurement": "Weight Loss at 24 weeks, Mean", "setting": "[1]; haplotype 1,1 NET1G155A NET1T342C, Caucasians, 10-15 mg (Table 5)", "result": "−1.739"},
      {"measurement": "Weight Loss at 24 weeks, Mean", "setting": "[1]; haplotype 1,2 NET1G155A NET1T342C, All Ethnicities, 10-15 mg (Table 4)", "result": "−4.325"},
      {"measurement": "Weight Loss at 24 weeks, Mean", "setting": "[1]; haplotype 1,2 NET1G155A NET1T342C, Caucasians, 10-15 mg (Table 5)", "result": "−4.416"},
      {"measurement": "Weight Loss at 24 weeks, Mean", "setting": "[1]; haplotype 2,1 NET1G155A NET1T342C, All Ethnicities, 10-15 mg (Table 4)", "result": "−3.886"},
      {"measurement": "Weight Loss at 24 weeks, Mean", "setting": "[1]; haplotype 2,1 NET1G155A NET1T342C, Caucasians, 10-15 mg (Table 5)", "result": "−2.9211"},
      {"measurement": "Weight Loss at 24 weeks, Mean", "setting": "[1]; haplotype 2,2 NET1G155A NET1T342C, All Ethnicities, 10-15 mg (Table 4)", "result": "−9.99"},
      {"measurement": "Weight Loss at 24 weeks, Mean", "setting": "[1]; haplotype 2,2 NET1G155A NET1T342C, Caucasians, 10-15 mg (Table 5)", "result": "−9.413"},
      {"measurement": "Mean weight loss", "setting": "[1]; subgroup 2,2 for NET1T342C and/or NET1G155A and/or NR1G6435A, 10 mg/day+15 mg/day combined, 24 weeks", "result": 6.05, "unit": "kg"},
      {"measurement": "Change in weight at Week 24", "setting": "[1]; subgroup 2/2 NET1T342C and/or 2/2 NET1G155A and/or 2/2 NR1G6435A, 10 mg/day+15 mg/day, 26 subjects", "result": -6.05, "unit": "kg"},
      {"measurement": "Mean weight loss at 24 weeks", "setting": "[1]; subgroup 2/2 for NET1T342C and not 2/2 for DRD2C12121T", "result": "≥ 6", "unit": "kg"},
      {"measurement": "Mean weight loss", "setting": "[1]; subgroup DAT1VNTR 10,9 or 9,9, 15 mg/day, 24 weeks", "result": 6.89, "unit": "kg"},
      {"measurement": "Inhibition of dopamine reuptake", "setting": "dopamine reuptake", "result": "weaker reuptake inhibition effects on dopamine reuptake"}
    ]}
  ]
}
